Data set [1] concerns the target T1, recombinant human GST-MDM2 (Homo sapiens, UniProt Q00987).
T1 construct: purchased R&D Systems
Nature of the data set: Fluorescence polarization binding of Cy5-labeled peptides to MDM2. To be noted: 20 nM Cy5-labeled peptide, FP buffer pH 7.4, 30 min room temperature; performed twice in technical triplicates. (In general: Polarisation of emitted light reports the rotation of a fluorescent probe.)
Description: (B) Fluorescence polarization measurement of 20 nM Cy5-labeled peptides binding to recombinant human GST-MDM2.
20 nM of Cy5-labeled peptides were added to dilutions of human MDM2 (Recombinant Human GST -
MDM2/HDM2, R&D Systems) in FP buffer (50 mM tris(hydroxymethyl)aminomethane (Tris, Carl Roth),
150 mM sodium chloride (Sigma), 1 mM EDTA (Sigma), 0.01% (v/v) Tween20 (Sigma), pH 7.4) and
incubated for 30 min at room temperature. Fluorescence polarization was then measured in a Tecan
Spark plate reader (λex = 640 nm, λem = 670 nm). Measurements were performed twice in technical
triplicates. Data was then fit with Prism 10 (GraphPad) using non-linear regression with the following
solution to the quadratic binding equation 1 to obtain Kd:
𝐹𝑃 = 𝐹𝑃 + (𝐹𝑃 − 𝐹𝑃 ) ∗ 𝑐 + 𝑐 + 𝐾 − 𝑝𝑒𝑝𝑡𝑖𝑑𝑒 𝑀𝐷𝑀2 𝑑 𝑝𝑒𝑝𝑡𝑖𝑑𝑒 𝑀𝐷𝑀2

In data set [2] the target is T2, CMKLR1 (Homo sapiens, UniProt Q99788).
T2 construct: expressed in transfected cells; host or cells: COS-7 (stably transfected, CMKLR1-eYFP + Δ6Gαqi4myr)
T2 sequence (Q99788 1-373): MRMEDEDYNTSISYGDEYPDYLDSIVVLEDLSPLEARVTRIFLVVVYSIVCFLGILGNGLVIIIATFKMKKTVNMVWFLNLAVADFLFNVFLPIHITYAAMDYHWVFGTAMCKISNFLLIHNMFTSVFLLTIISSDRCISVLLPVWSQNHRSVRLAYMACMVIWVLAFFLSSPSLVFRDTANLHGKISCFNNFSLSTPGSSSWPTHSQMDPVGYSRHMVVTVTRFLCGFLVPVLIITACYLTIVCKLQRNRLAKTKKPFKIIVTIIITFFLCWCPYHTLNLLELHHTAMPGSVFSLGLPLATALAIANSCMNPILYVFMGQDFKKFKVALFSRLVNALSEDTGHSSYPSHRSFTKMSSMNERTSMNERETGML
Description: Ca2+ flux assay in COS-7_CMKLR1-eYFP_Δ6Gαqi4myr cells. The class given is cell-based. To be noted: maximum signal over baseline normalized to peptide 1, at least two independent experiments in duplicate. For orientation: Calcium assays in cells follow changes in intracellular calcium, usually with a dye or a luminescent sensor.
Description: (C) Activity of the cyclic chemerin-9 (cC9) derivatives at CMKLR1 tested in a Ca^2+ flux assay. Data points represent the mean ± SEM of at least two independent experiments performed in duplicate.
Calcium flux assay was performed with cells expressing CMKLR1 and the chimeric G protein Δ6Gαqi4myr.
The stably transfected COS-7_CMKLR1-eYFP_ Δ6Gαqi4myr cells were seeded at 25,000 cells per well into poly-ᴅ-lysine-coated 96-well plates (black µCLEAR, Greiner). The next day, cells were incubated with 2.3 µM Fluo-2-AM (Abcam) and 0.06% (v/v) Pluronic-F127 (Sigma) in assay buffer (2.5 mM probenecid (Sigma), 20 mM 4-(2-hydroxyethyl)-1-piperazineethanesulfonic acid (HEPES, Sigma) in Hanks' Balanced Salt Solution (HBSS, Biowest), pH 7.5) for 1 h. This solution was replaced by assay buffer, and basal Ca2+ signal (λex = 485 nm, λem = 525 nm) was measured for 20 s with a Flexstation 3 plate reader (Molecular Devices). Peptide dilutions were added, and the Ca2+ response was measured for 40 s. The maximum signal over baseline was calculated and normalized to peptide 1 (N3-cC9). Non-linear regression was performed using Prism 10 (GraphPad). Experiments were performed in technical duplicates and at least

The test system of data set [3] is HEK293_CMKLR1-eYFP cells. Description: Resazurin based cell viability assay, peptides. To be noted: 72 h incubation. As to the method:
page 3: […] 15% FCS. Calcium flux assay Calcium flux assay was performed with cells expressing CMKLR1 and the chimeric G protein […]. The stably transfected COS-7_CMKLR1-eYFP_ […] were seeded at 25,000 cells per well into poly-ᴅ-lysine-coated 96-well plates (black μCLEAR, Greiner). The next day, cells were incubated with […] (Sigma), 20 mM 4-(2-hydroxyethyl)-1-piperazineethanesulfonic acid (HEPES, Sigma) in Hanks' Balanced […] This solution was replaced by assay buffer, and basal Ca2+ signal (λex = 485 nm, λem = 525 nm) was measured for 20 s with a Flexstation 3 plate reader (Molecular Devices). Peptide dilutions were added, and the Ca2+ response was measured for 40 s. The maximum signal over baseline was calculated and normalized to peptide 1 (N3-cC9). Non-linear regression was performed using Prism 10 (GraphPad). Experiments were performed in technical duplicates and at least twice. Cell viability assay HEK293 and HEK293_CMKLR1-eYFP cells were seeded at 15,000 cells per well into poly-ᴅ-lysine coated 96-well plates (black μCLEAR, Greiner). […] Cells were then washed and a resazurin-based cell viability assay was performed. […] (1:1) + 15% FBS without phenol red was added to the cells. […] using the fluorescence of resorufin (λex = 550 nm, λem = 595 nm). Data was normalized to cells incubated without peptide (100%) and cells treated with ethanol for 3 min before resazurin addition (0%). Experiments were performed in technical triplicates and at least twice. Fluorescence microscopy Peptide internalization was evaluated by fluorescence microscopy. […] the cells and incubated for 6 h. […] All shown microscopy images are representative of at least two independent experiments. […] Resazurin based cell viability assay of HEK293 and HEK293_CMKLR1-eYFP cells after 72 h incubation with the p53/MDM2 inhibitor Nutlin-3a. […] 100 50 2Cy 3Cy 4Cy 0 -8 -7 -6 -5 -4 […]], log Figure S4. Resazurin based cell viability assay of HEK293_CMKLR1-eYFP cells after 72 h incubation with the PMIγ peptides discussed in this work. Mean ± SEM from two independent experiments performed in triplicates. 15 […]
(In general: Resazurin is reduced to fluorescent resorufin, in cell work by metabolically active cells.)

Data set [4] addresses T3, p53/MDM2 interaction (Homo sapiens, UniProt Q00987).
T3 construct: host or cells: HEK293 and HEK293_CMKLR1-eYFP
Nature of the data set: Inhibition of intracellular p53-HaloTag/NanoLuc-MDM2 BRET. It is filed as cell-based. To be noted: unlabeled peptides, 72 h. As to the method: Peptides were incubated on HEK293 and HEK293_CMKLR1-eYFP cells for 72 h, before BRET was measured. Nutlin-3a was incubated on HEK293 cells for 24 h before BRET was measured. Mean ± SEM from two independent experiments performed in duplicate. […]
dividing the Cy5-signal (670±30 nm) by the NanoLuc signal (450±20 nm). netBRET was calculated by subtracting the BRET ratio from cells which were incubated without peptide. To calculate the CMKLR1-specific effect, ΔBRET was calculated by subtracting the netBRET value obtained in cells without CMKLR1 from netBRET obtained in cells with CMKLR1. After the initial readout, a kinetic BRET displacement was performed with the same cells. For this, luminescence was measured every 22 s. After 3 min, 10 µM of the small molecule MDM2 antagonist Nutlin-3a (Sigma) was added to the cells and BRET was measured for another 7 min. Experiments were performed in technical duplicates and three independent times. […]
were then incubated with dilutions of unlabeled PMIγ -peptides for 72 h or with Nutlin-3a for 24 h. […] After 10 min incubation, luminescence was measured, and BRET ratio was calculated by dividing the TMR-signal (600±50 nm) by the NanoLuc signal (450±20 nm). netBRET was calculated and normalized to cells without peptide (100%) and cells which were not label ed with HaloTag TMR Ligand (0%). […]

The conditions of data set [5]: printed as (reference) in the column measured D; calibration standard of the focal volume; source not shown; cited from earlier work. An excerpt:
Descriptive statistics of fluorescence correlation spectroscopy (FCS) data from Figure 3. Measurements were obtained in stably transfected HEK293_CMKLR1-eYFP cells as well as endogenously CMKLR1-expressing HMEC-1 and THP-1 cells. SD – standard deviation, GSD – geometric SD factor, IQR – interquartile range applied mean ± SD geometric median (IQR) cell line N° name concentration [nM] mean *÷ GSD [nM] [nM] [nM] HEK29 ...

[6] abbreviates: read-out: pEC50 ± SEM (converted).

Where two headings read alike, the source gives them in different places. Where a SMILES comes first, the peptide text is derived from it. Bridges are numbered along the chain shown (N, C = ends). Roman numbers before positions name the chains, in order. Triazole bridges read from a SMILES are 1,4-linked. Where no end group is shown, it is not given here. [ ]: non-standard residue; d: D form. Lys(N3) = [N-]=[N+]=NCCCC[C@H](N)C(=O)O; Cit = NC(=O)NCCC[C@H](N)C(=O)O; d(hCys) = N[C@H](CCS)C(=O)O; PEG3 = NCCOCCOCCOCCC(=O)O; Pra = C#CC[C@H](N)C(=O)O

T3 sequence (Q00987 whole entry): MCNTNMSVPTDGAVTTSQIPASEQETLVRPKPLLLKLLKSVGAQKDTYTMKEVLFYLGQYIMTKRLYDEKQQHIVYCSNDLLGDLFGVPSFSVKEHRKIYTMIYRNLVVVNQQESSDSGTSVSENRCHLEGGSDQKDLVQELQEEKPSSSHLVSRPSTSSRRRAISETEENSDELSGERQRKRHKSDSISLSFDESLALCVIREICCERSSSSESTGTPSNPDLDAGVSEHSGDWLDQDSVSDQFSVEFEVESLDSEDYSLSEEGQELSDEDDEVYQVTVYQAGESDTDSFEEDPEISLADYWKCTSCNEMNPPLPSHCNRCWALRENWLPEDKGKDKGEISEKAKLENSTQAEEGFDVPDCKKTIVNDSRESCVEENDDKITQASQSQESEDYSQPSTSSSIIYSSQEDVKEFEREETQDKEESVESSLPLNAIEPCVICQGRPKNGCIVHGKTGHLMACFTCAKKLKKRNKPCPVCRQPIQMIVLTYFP
T1 sequence (Q00987 whole entry): as above

Take `C#CC[C@H](NC(=O)CCOCCOCCOCCNC(=O)[C@H](CCCNC(N)=O)NC(=O)[C@@H](NC(=O)[C@H](CCC(=O)O)NC(=O)CNC(=O)[C@@H](CCCNC(=N)N)NC(=O)[C@@H](CC(C)C)NC(=O)[C@@H](CC(C)C)NC(=O)[C@@H](C)NC(=O)[C@@H](CCC(=O)O)NC(=O)[C@@H](Cc1ccccc1)NC(=O)[C@@H](C)NC(=O)[C@@H](CC(C)C)NC(=O)[C@H]1CCCN1C(=O)[C@@H](Cc1c[nH]c2ccccc12)NC(=O)[C@@H](Cc1c[nH]c2ccccc12)NC(=O)[C@@H](CC(=O)O)NC(=O)CCOCCOCCOCCNC(=O)[C@@H](CCCNC(=N)N)NC(=O)[C@@H](CCCNC(=N)N)NC(=O)[C@@H](CCCNC(=N)N)NC(=O)[C@@H](CCCNC(=N)N)NC(=O)[C@@H](CCCNC(=N)N)NC(=O)[C@@H](CCCNC(=N)N)NC(=O)[C@@H](CCCNC(=N)N)NC(=O)[C@@H](CCCNC(=N)N)NC(=O)[C@@H](CCCNC(=N)N)NC(=O)CCOCCOCCOCCNC(=O)CCCCC[N+]1=C(C=CC=CC=C2N(C)c3ccc(S(=O)(=O)O)cc3C2(C)C)C(C)(C)c2cc(S(=O)(=O)[O-])ccc21)C(C)C)C(N)=O` [4Cy]: in data set [1], the Kd is 0.0571 ± 0.0218 µM.
As for `CC(=O)N[C@@H](CCCCN=[N+]=[N-])C(=O)N[C@@H](Cc1ccc(O)cc1)C(=O)N[C@@H](Cc1ccccc1)C(=O)N1CCC[C@H]1C(=O)N[C@@H]1CCSSC[C@@H](C(=O)O)NC(=O)[C@H](Cc2ccccc2)NC(=O)[C@H](C)NC(=O)[C@H](Cc2ccccc2)NC(=O)[C@H](CCC(N)=O)NC1=O` [compound 1] (Ac-[Lys(N3)]YFP[d(hCys)]QFAFC-OH; disulfide 5-10), the EC50 in data set [2] (setting [6]) is 0.00347 µM.
Consider `CC(=O)N[C@@H](CCCCn1cc(C[C@H](NC(=O)CCOCCOCCOCCNC(=O)[C@H](CCCNC(N)=O)NC(=O)[C@@H](NC(=O)[C@H](CCC(=O)O)NC(=O)CNC(=O)CNC(=O)[C@@H](CCCNC(=N)N)NC(=O)[C@@H](CC(C)C)NC(=O)[C@@H](CC(C)C)NC(=O)[C@@H](C)NC(=O)[C@@H](CCC(=O)O)NC(=O)[C@@H](Cc2ccccc2)NC(=O)[C@@H](C)NC(=O)[C@@H](CC(C)C)NC(=O)[C@H]2CCCN2C(=O)[C@@H](Cc2c[nH]c3ccccc23)NC(=O)[C@@H](Cc2c[nH]c3ccccc23)NC(=O)[C@H](N)CC(=O)O)C(C)C)C(N)=O)nn1)C(=O)N[C@@H](Cc1ccc(O)cc1)C(=O)N[C@@H](Cc1ccccc1)C(=O)N1CCC[C@H]1C(=O)N[C@@H]1CCSSC[C@@H](C(=O)O)NC(=O)[C@H](Cc2ccccc2)NC(=O)[C@H](C)NC(=O)[C@H](Cc2ccccc2)NC(=O)[C@H](CCC(N)=O)NC1=O` [compound 2] (I: H-[dD][dW][dW][dP][dL][dA][dF][dE][dA][dL][dL][dR]GGEV[Cit][PEG3][Pra]-NH2 / II: Ac-[Lys(N3)]YFP[d(hCys)]QFAFC-OH; triazole I:19-II:1; disulfide II:5-II:10; N-terminus assumed), for which the cytotoxicity entry in data set [3] is “no signs of cytotoxicity”. For the same molecule, the “extent of competition of the p53/MDM2 interaction” value in data set [4] was “neither achieved full competition”. In data set [4] (HEK293 versus HEK293_CMKLR1-eYFP), the “displacement of NanoLuc-MDM2/p53-HaloTag BRET” value is “CMKLR1-selective effects at extracellular concentrations above 1 μM”.
In the case of “I: GSVSHHHHHHGGHHHH[PEG3][dD][dW][dW][dP][dL][dA][dF][dE][dA][dL][dL][dR]GEV[Cit][PEG3][Pra]-NH2 / II: Ac-[Lys(N3)]YFP[d(hCys)]QFAFC (triazole I:35-II:1; disulfide II:5-II:10) [compound 3]”, the EC50 is 0.0706 µM in data set [2] (read-out: EC50) and 0.0708 µM in data set [2] (setting [6]). Besides, the cytotoxicity entry in data set [3] is on record as “tolerated slightly worse at concentrations above 1 μM”.
Consider sulfo-cyanine5 [sulfo-Cy5], for which the “D in solution, reference” value in data set [5] is reported as 341.6 µm2/s.

For orientation: Kd means the equilibrium constant for the complex coming apart.

These data come from article PMC12814185, “Receptor-Mediated Shuttling of a D‑Amino Acid Peptide Achieves High Nanomolar Cytosolic Concentrations” (Journal of the American Chemical Society, 2025).
